# Assay results published in patent publication US11970494B2, “6-heteroaryloxy benzimidazoles and azabenzimidazoles as JAK2 inhibitors” (Ajax Therapeutics, Inc., priority 2021, dated 2024).
# Columns and labels:
# Tyk2 = molecular target: T1, Tyk2 (Homo sapiens, UniProt P29597); assay: JAK Family Selectivity Assay: Tyk2 vs JAK2 binding affinity; conditions: Kd TYK2 over Kd JAK2
# T1 construct: made in house; host or cells: T7 phage in BL21-derived E. coli or HEK-293 cells
# Protocol: Provided compounds are evaluated for selectivity by comparing their JAK2 binding affinity (Kd) in the above JAK2 Binding Assay with their binding affinity (Kd) for one or more other kinases. Binding affinity for other kinases is determined as follows: Kinase-tagged T7 phage strains are prepared in an E. coli host derived from the BL21 strain. E. coli are grown to log-phase and infected with T7 phage and incubated with shaking at 32° C. until lysis. The lysates are centrifuged and filtered to remove cell debris. The remaining kinases are produced in HEK-293 cells and subsequently tagged with DNA for qPCR detection. Streptavidin-coated magnetic beads are treated with biotinylated small molecule ligands for 30 minutes at room temperature to generate affinity resins for kinase assays. The liganded beads are blocked with excess biotin and washed with blocking buffer (SeaBlock (Pierce), 1% BSA, 0.05% Tween 20, 1 mM DTT) to remove unbound ligand and to reduce non-specific binding. Binding reactions are assembled by combining kinases, liganded affinity beads, and test compounds in 1× binding buffer (20% SeaBlock, 0.17×PBS, 0.05% Tween 20, 6 mM DTT). Test compounds are prepared as 111× stocks in 100% DMSO. Kds are determined using an 11-point 3-fold compound dilution series with three DMSO control points. All compounds for Kd measurements are distributed by acoustic transfer (non-contact dispensing) in 100% DMSO. The compounds are then diluted directly into the assays such that the final concentration of DMSO is 0.9%. All reactions are performed in polypropylene 384-well plate. Each has a final volume of 0.02 ml. The assay plates are incubated at room temperature with shaking for 1 hour and the affinity beads are washed with wash buffer (1×PBS, 0.05% Tween 20). The beads are then re-suspended in elution buffer (1× PBS, 0.05% Tween 20, 0.5 μM non-biotinylated affinity ligand) and incubated at room temperature with shaking for 30 minutes. The kinase concentration in the eluates is measured by qPCR. […] In some embodiments, provided compounds may be JAK2-selective over one or more of the following kinases: JAK1, JAK3, and Tyk2.
# Kinetic Solubility Assay = format: physicochemical; conditions: aqueous buffer, kinetic from dmso stock, kinetic solubility in PBS (pH 4.0 and pH 7.4 in method; pH of table values not stated), RT
# Protocol: Stock solutions of test compounds are prepared in DMSO at the concentration of 10 mM, and a stock solution of control compound is prepared in DMSO at the concentration of 30 mM. Diclofenac is used as positive control in the assay. 30 μL stock solution of each compound is placed into their a 96-well rack, followed by adding 970 μL of PBS at pH 4.0 and pH 7.4 into each vial of the cap-less solubility sample plate. This study is performed in duplicate. One stir stick is added to each vial and then vials are sealed using a molded PTDE/SIL 96-Well Plate Cover. The solubility sample plate is transferred to the Thermomixer comfort plate shaker and incubated at RT for 2 hours with shaking at 1100 rpm. After 2 hours incubation, stir sticks are removed using a big magnet and all samples from the solubility sample plate are transferred into the filter plate. All the samples are filtered by vacuum manifold. The filtered samples are diluted with methanol. Samples are analyzed by LC-MS/MS and quantified against a standard of known concentration in DMSO using LC coupled with Mass spectral peak identification and quantitation. The solubility values of the test compounds are calculated as follows, wherein INJ VOL is injection volume, DF is dilution factor, and STD is standard: […]
# [1] = system: JAK2-mediated pSTAT5 signaling in constitutively active essential thrombocytopenia cells carrying the V617F mutation; assay: SET2-pSTAT5 Cellular Assay; format: cell-based; conditions: Homo sapiens, SET-2; SET2 cells, pSTAT5, 4 hours, MSD; read-out: IC50
# Protocol: This assay measures inhibition of JAK2-mediated pSTAT5 signaling in constitutively active essential thrombocytopenia cells carrying the V617F mutation. Cells are harvested from a flask into cell culture medium, and the number of cells is counted. The cells are diluted with culture medium and 100 μL of cell suspension (50000/well) is added into each well of a 96-well cell culture plate. A solution of test compound is added to the assay plate. The plates are covered with a lid and placed in a 37° C. 5% CO2 incubator for 4 hours. After 4 hours, the cells are spun, and the cell pellets are re-suspended with 100 μL cold PBS. Then, the cells are spun again at 4° C. and 4000 rpm for 5 min. PBS is aspirated, and 25 μL lysis buffer (with protease and phosphatase inhibitor cocktail) is added to each cell pellet. The cell lysate is shaken at 4° C. for 20 min to fully lyse the cells. The cell lysate is spun at 4° C. and 4000 rpm for 15 min, and then the supernatant is transferred into a new plate and stored at −80° C. Meso-scale discovery (MSD) is used to analyze plates as follows: a standard MSD plate is coated with capture antibody in PBS (40 μL/well) and is incubated at 4° C. overnight with shaking. The MSD plate is washed three times with 150 μL/well of 1×MSD Wash Buffer (Tris-buffered saline with 0.1% Tween® 20 detergent, TBST). The MSD plates are then blocked with 150 μL of blocking buffer (5% BSA in TBST) and shaken for 1 h at room temperature and 600 rpm. The MSD plate is washed three times with 150 μL/well of 1×MSD Wash Buffer (TBST). Sample lysates are then added to MSD plates (25 μL/well) and shaken for 1 h at room temperature and 600 rpm. The MSD plate is washed three times with 150 μL/well of 1×MSD Wash Buffer (TBST). Detection antibody (prepared in Antibody Detection buffer, 1% BSA in 1×TBST) is then added to the MSD plates, and they are shaken for 1 h at room temperature and 600 rpm. The MSD plate is washed three times with 150 μL/well of 1×MSD Wash Buffer (TBST). A secondary detection antibody (prepared in Antibody Detection buffer, 1% BSA in 1×TBST) is then added to the MSD plates, and they are shaken for 1 h at room temperature and 600 rpm. The MSD plate is washed three times with 150 μL/well of 1×MSD Wash Buffer (TBST). MSD reading buffer (1×) is added to the plates (150 μL/well), and they are diluted from 4× with water. The plates are imaged using an MSD imaging instrument according to the manufacturer's instructions.
# T1 sequence (P29597 whole entry): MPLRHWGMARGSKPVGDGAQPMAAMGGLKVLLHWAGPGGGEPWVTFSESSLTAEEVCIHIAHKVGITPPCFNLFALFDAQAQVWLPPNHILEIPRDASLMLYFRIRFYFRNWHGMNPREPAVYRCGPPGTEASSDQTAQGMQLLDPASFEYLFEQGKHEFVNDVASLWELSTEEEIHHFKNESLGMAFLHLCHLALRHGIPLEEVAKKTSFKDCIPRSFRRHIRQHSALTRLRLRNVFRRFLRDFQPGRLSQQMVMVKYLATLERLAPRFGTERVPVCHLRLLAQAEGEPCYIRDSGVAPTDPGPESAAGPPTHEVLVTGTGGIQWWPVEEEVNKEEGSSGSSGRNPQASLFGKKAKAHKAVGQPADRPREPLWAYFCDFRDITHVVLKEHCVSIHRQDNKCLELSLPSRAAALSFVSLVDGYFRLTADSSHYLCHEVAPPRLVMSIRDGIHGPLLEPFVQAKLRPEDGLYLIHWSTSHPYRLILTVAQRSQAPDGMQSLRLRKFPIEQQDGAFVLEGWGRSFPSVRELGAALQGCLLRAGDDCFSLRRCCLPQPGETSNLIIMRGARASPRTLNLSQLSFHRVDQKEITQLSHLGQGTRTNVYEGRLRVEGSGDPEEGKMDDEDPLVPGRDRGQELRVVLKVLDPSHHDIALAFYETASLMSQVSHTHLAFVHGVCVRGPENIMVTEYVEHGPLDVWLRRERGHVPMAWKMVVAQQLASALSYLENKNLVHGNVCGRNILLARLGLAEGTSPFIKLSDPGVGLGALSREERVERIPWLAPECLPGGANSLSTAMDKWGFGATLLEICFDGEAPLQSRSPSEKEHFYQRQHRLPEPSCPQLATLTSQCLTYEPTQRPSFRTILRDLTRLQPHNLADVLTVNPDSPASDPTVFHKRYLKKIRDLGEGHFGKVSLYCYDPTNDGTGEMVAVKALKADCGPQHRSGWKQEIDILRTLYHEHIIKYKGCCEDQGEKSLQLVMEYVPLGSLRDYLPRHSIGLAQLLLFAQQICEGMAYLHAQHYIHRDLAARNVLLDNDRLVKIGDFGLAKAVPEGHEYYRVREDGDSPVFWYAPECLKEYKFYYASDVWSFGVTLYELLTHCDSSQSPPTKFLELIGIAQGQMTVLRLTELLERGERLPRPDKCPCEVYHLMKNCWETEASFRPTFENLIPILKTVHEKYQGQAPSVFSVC
TYK2/JAK2 Kd/Kd ratio (Tyk2),solubility at 2 h (Kinetic Solubility Assay) [µM],IC50 [1] [nM],SMILES
C (Kd/Kd ratio <300 and ≥100),100 to 200,200 to 1000,"CCN1CCN(Cc2ccc(Nc3nc4ccc(Oc5ccnc(NC(C)=O)c5)cc4n3C)cc2C(F)(F)F)CC1 [Example R-1, reference compound]"
C (Kd/Kd ratio <300 and ≥100),0.1 to 9,< 125,"CO[C@H]1CCN(C(=O)Nc2cc(Oc3cnc4nc(Nc5cc(C(F)(F)F)cn(C)c5=O)n(C)c4c3C#N)ccn2)C1 [Example I-14, (S)-N-(4-((7-cyano-1-methyl-2-((1-methyl-2-oxo-5-(trifluoromethyl)-1,2-dihydropyridin-3-yl)amino)-1H-imidazo[4,5-b]pyridin-6-yl)oxy)pyridin-2-yl)-3-methoxypyrrolidine-1-carboxamide]"
C (Kd/Kd ratio <300 and ≥100),0.1 to 9,< 125,"Cn1cc(C(F)(F)F)cc(Nc2nc3ncc(Oc4ccnc(NC(=O)O[C@@H]5CCOC5)c4)c(C#N)c3n2C)c1=O [Example I-18, (R)-Tetrahydrofuran-3-yl(4-((7-cyano-1-methyl-2-((1-methyl-2-oxo-5-(trifluoromethyl)-1,2-dihydropyridin-3-yl)amino)-1H-imidazo[4,5-b]pyridin-6-yl)oxy)pyridin-2-yl)carbamate]"
C (Kd/Kd ratio <300 and ≥100),0.1 to 9,< 125,"COCC(=O)Nc1cc(Oc2cnc3nc(Nc4cc(C(F)(F)F)cn(C)c4=O)n(C)c3c2Cl)ccn1 [Example I-75, N-(4-((7-chloro-1-methyl-2-((1-methyl-2-oxo-5-(trifluoromethyl)-1,2-dihydropyridin-3-yl)amino)-1H-imidazo[4,5-b]pyridin-6-yl)oxy)pyridin-2-yl)-2-methoxyacetamide]"
B (Kd/Kd ratio <1000 and ≥300),9 to 100,< 125,"Cn1cc(C(F)(F)F)cc(Nc2nc3ncc(Oc4ccnc(NC(=O)OCCN5CCOCC5)c4)c(C#N)c3n2C)c1=O [Example I-15, 2-Morpholinoethyl(4-((7-cyano-1-methyl-2-((1-methyl-2-oxo-5-(trifluoromethyl)-1,2-dihydropyridin-3-yl)amino)-1H-imidazo[4,5-b]pyridin-6-yl)oxy)pyridin-2-yl)carbamate]"
D (Kd/Kd ratio <100),0.1 to 9,< 125,"CC(=O)Nc1cc(Oc2cnc3nc(Nc4cc(C(F)(F)F)cn(C)c4=O)n(C)c3c2Cl)c(F)cn1 [Example I-88, N-(4-((7-chloro-1-methyl-2-((1-methyl-2-oxo-5-(trifluoromethyl)-1,2-dihydropyridin-3-yl)amino)-1H-imidazo[4,5-b]pyridin-6-yl)oxy)-5-fluoropyridin-2-yl)acetamide]"

SMILES,TYK2/JAK2 Kd/Kd ratio (Tyk2),solubility at 2 h (Kinetic Solubility Assay) [µM],IC50 [1] [nM]
"COC1CN(C(=O)Nc2cc(Oc3cnc4nc(Nc5cc6n(n5)CCC65CCC5)n(C)c4c3C#N)ccn2)C1 [Example I-61, N-(4-((7-cyano-2-((5′,6′-dihydrospiro[cyclobutane-1,4′-pyrrolo[1,2-b]pyrazol]-2′-yl)amino)-1-methyl-1H-imidazo[4,5-b]pyridin-6-yl)oxy)pyridin-2-yl)-3-methoxyazetidine carboxamide]",D (Kd/Kd ratio <100),0.1 to 9,< 125
